Columns and labels:
[1] = tested on: CD4^+ T cells from HIV^+ subjects; conditions: HIV-1 peptides; HIV+ human subjects
Protocol: The overlapping peptide pools of FIV and HIV-1 structural and enzyme proteins were used to stimulate the […] (PBMC) and the T cells from HIV^+ subjects as previously described for epitope mapping of HIV-1 and FIV p24 and reverse transcriptase (RT) (Sanou et al., 2013; Roff et al., 2015). The individual peptides in those peptide pools with positive responses to either interferon-γ (IFNγ) production and/or T-cell proliferation were determined with IFNγ ELISpot analysis and CFSE-based CD3^+CD4^+ and CD3^+CD8^+ T-cell proliferation analyses followed by the FACS-based intracellular staining (ICS) for cytolysin (perforin) and cytotoxin (granzyme A [GrzA] and GrzB) (Sanou et al., 2013; Roff et al., 2015). Besides viral p24 and RT proteins, the identical approach was used to identify anti-HIV/FIV T-cell epitopes on viral matrix (MA), nucleocapsid (NC), protease (PR), RNAase, integrase (IN), surface envelope (SU Env), and transmembrane envelope (TM Env) (FIG. 12).
Since our goal is to develop HIV vaccine for human use, the HIV peptides (Table 10) counterpart of the cross-reactive FIV peptides shown in Table 9 were tested with PBMC and T cells from HIV^+ subjects. The immune functions analyzed were human IFNγ production by ELISpot, cytolysin/cytotoxin production by ICS, and CFSE-based proliferation of CD3^+CD4^+ and CD3^+CD8^+ T cells from HIV^+ subjects (Table 10, the first set of results). In addition, the Los Alamos National Laboratories (LANL) database was used to identify the HLA allele(s) of the HIV epitope sequence with CTL activity that can exist within the sequence of the conserved counterpart HIV peptide (Table 9, LANL CTL). The bold HLA class-I supertypes and the bold 2-digit alleles are those on the “Optimal CD8^+ CTL Epitopes” list and those without bold are alleles for potential CTL epitope. […] The HLA class II such as HLA-DRB1 has yet to be fully classified into supertypes, and therefore the 4-digit resolution nomenclatures for the HLA-DRB1 alleles are shown.
The counterpart HIV-1 peptides of the FIV peptides were also tested for immunogenicity using PBMC and T cells from HIV^+ human subjects. […] The HRT7-1 and HRT7-2 were also tested with cells from HIV^+ subjects on ART. The threshold for positive IFNγ ELISpot response is ≥75 spot-forming units (SFU) per 10^6 PBMC. The threshold for CFSE-based CD4^+ (CD4^+ T) and CD8^+ (CD8^+ T) T-cell proliferation is ≥2% CD4^+ T-cell CFSE^low or CD8^+ T-cell CFSE^low. The threshold of intracellular cytokine staining (ICS) of FACS-based cytolysin (perforin) and cytotoxins (granzymes A and B) in CD4^+ T cells (CyCD4) and CD8^+ T cells (CyCD8) is ≥0.2%. […] The nine HIV-1 peptides in black are the counterpart FIV peptides used in the current MAP vaccine trial, whereas the 13 peptides in blue were not.

[2] = tested on: feline CD3^+CD8^+ T cells; assay: CFSE-based feline CD3+CD8+ T-cell proliferation; parameters: species or system cat; conditions: for CD8, frequency of responders: FIV epitope peptide; for CD8, frequency of responders / CD8^+ T (T-cell proliferation), frequency of responders: FIV-vaccinated cats; for CD8^+ T (T-cell proliferation), frequency of responders: FIV peptides; for % CD8+ T-cell CFSE^low over % CD4+ T-cell CFSE^low ratio (CD8/CD4 response ratio): cats of Group 1, MAP Vaccine Trial 1 (FIG. 3)
Protocol: (§1) Carboxyfluorescein diacetate succinimide ester (CFSE)-proliferation was performed according to the manufacturer's protocol (Invitrogen, Grand Island, N.Y.) and processed using a previously described modification. The modification consisted of 2.5×10^5 CFSE-labeled feline PBMC stimulated for 5 days (37° C., 5% CO2) with 4 μg/mL peptide in culture media (RPMI medium 25 µg/mL gentamycin, and 10% heat-inactivated fetal bovine serum (FBS)). Peptide pools consisted of 3-5 overlapping peptides of 4 μg/mL each. The antibodies used for flow cytometry based proliferation analysis consisted of murine anti-feline (Fe) CD3 monoclonal antibody (MAb clone kindly provided by Drs. Yorihiro Nishimura and Takayuki Miyazawa; described in [32]) combined with secondary goat anti-mouse IgG3-APC/CY7 MAb (SouthernBiotech, Birmingham, Ala.; Cat#1100-19); and murine anti-FeCD4-PE MAb (SouthernBiotech, Cat#8130-09); and murine anti-FeCD8 MAb (MAb clone kindly provided by Dr. Nazareth Gengozian, described in [33]) with secondary goat anti-mouse IgG2a-PE/CY7 (Southern Biotech, Cat#1080-17). The murine anti-B220-APC MAb for detecting feline B cells (SouthernBiotech, Cat#1665-11) and previously described MAbs for CFSE were used for FACS phenotyping. Both FACS phenotyping and CFSE-proliferation analyses were performed with BD LSRII and FACSDiva™ Software (BD Biosciences, San Jose, Calif.). The final value for each sample was derived after subtraction of the average value of the media controls using a positive threshold of ≥1 CFSE^low.
(§2) Concurrently, the overlapping peptide pools of FIV structural/enzyme proteins were used to stimulate PBMC and T cells from FIV-vaccinated cats. These cats were vaccinated with prototype dual-subtype FIV vaccine which was the prototype to our commercial FIV vaccine (Coleman et al., 2014). The feline assays (Example 1) equivalent to those of human assays (Sanou et al., 2013; Roff et al., 2015) were used except for ICS analysis. In place of ICS for cytolysin/cytotoxins, IL2 ELISpot analysis was performed. […] The results for FIV-vaccinated cats included IFNγ and IL2 productions and CD3^+CD4+ and CD3^+CD8^+ T-cell proliferation (Table 9, the second set of results).
(§3) Carboxyfluorescein diacetate succinimide ester (CFSE)-proliferation analysis was according to the manufacturer's protocol (Invitrogen-Fisher, Carlsbad, Calif.) and processed as previously described (Roff et al. (2015)) using the following modifications: anti-feline CD3 antibody ((clone NZM1), a generous gift from T. Miyazawa (Univ. of Tokyo, Japan)) in combination with APC-conjugated anti-mouse IgG3 (Southern Biotech, Birmingham, Ala.), PE-conjugated anti-feline CD4 antibody (Southern Biotech), and anti-feline CD8 antibody (gift from N. Gengozian, University of Tennessee (Gengozian et al. (1997))) in combination with PE/Cy7-conjugated anti-mouse IgG2b (Southern Biotech) to detect the proliferation of feline CD3^+CD4+ T cells and feline […]. All results shown in the figures (FIGS. 7A-1, 7B-1, 7A-2, 7B-2, 7A-3, 7B-3) are after subtracting the average value of each results from all control cats. The threshold of CFSE proliferation is ≥0.5 CFSE^low. […]

[3] = tested on: feline CD3^+CD4^+ T cells; assay: CFSE-based feline CD3+CD4+ T-cell proliferation; parameters: species or system cat; conditions: FIV-vaccinated cats; for CD4, frequency of responders: FIV epitope peptide; for CDC4^+ T (T-cell proliferation), frequency of responders: FIV peptides
Protocol: as §1, §2, §3

[4] = tested on: PBMC from FIV-vaccinated cats; assay: Feline IL2 ELISpot of PBMC from vaccinated cats; type: cell-based, cat
Protocol: (§4) IFNγ and IL2 ELISpot analyses were performed using feline IFNγ ELISpot and feline IL2 ELISpot kits (R&D Systems, Cat# SEL764 and SEL1890) as described. The threshold is defined as ≥50 spot forming units (SFU) per 1×10^6 PBMC when counted with MVS ELISpot Reader (MVS Pacific, LLC). Each result is an average of the duplicate samples after subtraction of the average value of the media controls.
as §2
(§5) The feline IFNγ and L2 ELISpot analyses of PBMC to FIV MAPs and peptides were performed as previously described (Abbott et al. (2012)) using feline IFNγ modular kit (R&D Systems, Minneapolis, Minn.) and feline IL2 modular kit (R&D Systems). All results shown in the figures (FIGS. 8A-1, 8B-1, 8A-2, 8B-2, 8A-3, 8B-3) are after subtracting the average value of the results from all control cats.
(§6) The second parameter evaluated was the ability of the peripheral blood mononuclear cells (PBMC) from vaccinated and control cats to produce IL2 and interferon-γ (IFNγ) proteins in responses to FIV MAPs and peptides (FIGS. 8A-1, 8A-2, 8A-3, 8B-1, 8B-2, 8B-3) using feline IL2 and IFNγ ELISpot assays (Aranyos et al. (2016); Abbott et al. (2012)). IL2 enhances the proliferation of FIV-specific CD4^+ T cells and CD8^+ T cells. IFNγ is known enhance the FIV-specific CTL activities in vaccinated cats (Abbas et al. (2015)).

[5] = tested on: PBMC from FIV-vaccinated cats; assay: Feline IFNγ ELISpot of PBMC from vaccinated cats; type: cell-based, cat; conditions: for IFNγ production: cats of Group 1, MAP Vaccine Trial 1 (FIG. 3)
Protocol: as §4, §2, §5, §6

[6] = FIV epitope peptide, FIV-vaccinated cats
[7] = FIV peptides, FIV-vaccinated cats (prototype dual-subtype vaccine)

CC[C@H](C)[C@H](N)C(=O)N1CCC[C@H]1C(=O)N[C@H](C(=O)NCC(=O)N[C@@H](CCC(=O)O)C(=O)N[C@H](C(=O)N[C@@H](Cc1ccc(O)cc1)C(=O)N[C@@H](CCCCN)C(=O)N[C@@H](CCCNC(=N)N)C(=O)N[C@@H](Cc1c[nH]c2ccccc12)C(=O)N[C@H](C(=O)N[C@H](C(=O)N[C@@H](CC(C)C)C(=O)NCC(=O)O)[C@@H](C)CC)[C@@H](C)CC)[C@@H](C)CC)C(C)C [Hp9-3(10-3)]
CyCD4 (cytolysin and cytotoxin production of CD4+ T cells), frequency of responders [1]: + (12.5%-25% (+))

AAAPVNQMQQAVMPSA [FNC2]
CD8, frequency of responders [2]: ++++ (>54% (++++)) | CD8^+ T (T-cell proliferation), frequency of responders [2]: ++++ (>54% (++++)) | CD4, frequency of responders [3]: — (0%-1.4% (—)) | CDC4^+ T (T-cell proliferation), frequency of responders [3]: — (0%-1.4%(—)) | IL2, frequency of responders ([4]; FIV epitope peptide): ++++ (>54% (++++)) | IL2, frequency of responders ([4]; FIV peptides): ++++ (>54% (++++)) | IFNγ, frequency of responders [5, 6]: ++++ (>54% (++++)) | IFNγ, frequency of responders [5, 7]: ++++ (>54% (++++))

AEVKLYLKQSLSIANA [Fp14-3/4, overlapping peptide of MAP3]
CD8^+ T (T-cell proliferation), frequency of responders [2]: +++ (40.1%-54% (+++)) | % CD8+ T-cell CFSE^low over % CD4+ T-cell CFSE^low ratio (CD8/CD4 response ratio) [2]: 4.8 | CDC4^+ T (T-cell proliferation), frequency of responders [3]: +++ (40.1%-54% (+++)) | IL2, frequency of responders ([4]; FIV peptides): ++++ (>54% (++++)) | IFNγ, frequency of responders [5, 7]: +++ (40.1%-54% (+++)) | IFNγ production [5]: 96 SFU/10^6 PBMC

GRRYVWCSLPQGWVLSPLIY [FRT7-1/2, overlapping peptide of MAP5]
CD8^+ T (T-cell proliferation), frequency of responders [2]: +++ (40.1%-54% (+++)) | % CD8+ T-cell CFSE^low over % CD4+ T-cell CFSE^low ratio (CD8/CD4 response ratio) [2]: 11 | CDC4^+ T (T-cell proliferation), frequency of responders [3]: +++ (40.1%-54% (+++)) | IL2, frequency of responders ([4]; FIV peptides): +++ (40.1%-54% (+++)) | IFNγ, frequency of responders [5, 7]: +++ (40.1%-54% (+++)) | IFNγ production [5]: no IFNγ response

GSSKEIDMAIVTLKV [FMA2]
CD8, frequency of responders [2]: ++++ (>54% (++++)) | CD8^+ T (T-cell proliferation), frequency of responders [2]: ++++ (>54% (++++)) | CD4, frequency of responders [3]: ++++ (>54% (++++)) | CDC4^+ T (T-cell proliferation), frequency of responders [3]: ++++ (>54% (++++)) | IL2, frequency of responders ([4]; FIV epitope peptide): ++ (26%-40% (++)) | IL2, frequency of responders ([4]; FIV peptides): ++ (25.1%-40% (++)) | IFNγ, frequency of responders [5, 6]: ++ (26%-40% (++)) | IFNγ, frequency of responders [5, 7]: ++ (25.1%-40% (++))

KFLLDTGADITILN [FPR2]
CD8, frequency of responders [2]: ++++ (>54% (++++)) | CD8^+ T (T-cell proliferation), frequency of responders [2]: ++++ (>54% (++++)) | CD4, frequency of responders [3]: ++++ (>54% (++++)) | CDC4^+ T (T-cell proliferation), frequency of responders [3]: ++++ (>54% (++++)) | IL2, frequency of responders ([4]; FIV epitope peptide): ++++ (>54% (++++)) | IL2, frequency of responders ([4]; FIV peptides): ++++ (>54% (++++)) | IFNγ, frequency of responders [5, 6]: ++++ (>54% (++++)) | IFNγ, frequency of responders [5, 7]: ++++ (>54% (++++))

NVAVGVGGKSKKF [FMA1]
CD8, frequency of responders [2]: ++++ (>54% (++++)) | CD8^+ T (T-cell proliferation), frequency of responders [2]: ++++ (>54% (++++)) | CD4, frequency of responders [3]: +++ (41%-54% (+++)) | CDC4^+ T (T-cell proliferation), frequency of responders [3]: +++ (40.1%-54% (+++)) | IL2, frequency of responders ([4]; FIV peptides): — (0%-1.4%(—)) | IFNγ, frequency of responders [5, 6]: ++++ (>54% (++++)) | IFNγ, frequency of responders [5, 7]: ++++ (>54% (++++))

TLEKRPEILIFVNG [FPR1]
CD8, frequency of responders [2]: ++++ (>54% (++++)) | CD8^+ T (T-cell proliferation), frequency of responders [2]: ++++ (>54% (++++)) | CD4, frequency of responders [3]: ++++ (>54% (++++)) | CDC4^+ T (T-cell proliferation), frequency of responders [3]: ++++ (>54% (++++)) | IL2, frequency of responders ([4]; FIV epitope peptide): — (0%-1.4% (—)) | IL2, frequency of responders ([4]; FIV peptides): — (0%-1.4%(—)) | IFNγ, frequency of responders [5, 6]: — (0%-1.4% (—)) | IFNγ, frequency of responders [5, 7]: — (0%-1.4%(—))

WRMLIDFRVLNKLTDKGA [FRT3-4/5]
CD8^+ T (T-cell proliferation), frequency of responders [2]: — (0%-1.4%(—)) | CDC4^+ T (T-cell proliferation), frequency of responders [3]: — (0%-1.4%(—)) | IL2, frequency of responders ([4]; FIV peptides): +++ (40.1%-54% (+++)) | IFNγ, frequency of responders [5, 7]: — (0%-1.4%(—))

Source: patent US10758609B2, “Cross-reactive T-cell epitopes of HIV, SIV, and FIV for vaccines in humans and cats” (priority 2015, dated 2020)
